Assay results as given in patent US20040063612A1, “Neuroprotective agents” (priority 2002, published 2004).

Legend:
[1] = system: primary cortical neuron cultures; assay: Neuronal viability after oxidative stress (H2O2), crystal violet assay; format: cell-based, rat; conditions: pre-treatment one day prior to 40 mM H2O2
Protocol: Cell viability assays. […] Since the MTT assay measures both metabolic function (mitochondrial-based) and cell viability, a second method, the crystal violet assay, was used to assess cell density. For the crystal violet assay, the cells were rinsed in phosphate buffered saline (PBS) and stained for 10 minutes at room temperature with crystal violet solution (0.05% crystal violet, 2% formalin, 10% methanol). After extensive rinsing in tap water baths, the plates were dried and the dye eluted with 200 μl/well of PBS containing 1% SDS. The absorbance was measured at 595 nm using an automated ELISA reader.
High through-put screening with primary neuronal cell cultures. Primary neuronal cells were cultured in 96-well plates coated with collagen type IV or laminin.
Cerebral cortex tissue harvested from 16-18 day old rat fetuses (Sprague-Dawley) was incubated for 10 minutes in calcium-free and magnesium-free Hanks balanced salt solution (CMF-HBSS), followed by digestion in 0.25% trypsin/CMF-HBSS for 30 minutes at 37° C. […]
The cell viability was measured using the crystal violet assay one day after the oxidative injury. […]
Viability is expressed as percentage change relative to cultures treated only with the oxidant. […] Cell viability was measured using the crystal violet assay 1 day after the oxidative injury. […] Standard deviations calculated for 8 replicate cultures were <10%.

cerebral ischaemia = conditions: cited from earlier work

SMILES	increase in viability (in words) [1]	neuronal rescue (in words) [1]	infarct volume reductions (cerebral ischaemia)
c1ccc(Nc2ccccc2)cc1 [Diphenylamine, diphenylamine]	modest increase in viability	less pronounced neuronal rescue	–
[Mg+2] [Mg, magnesium]	–	–	25-61%
